The term IC50 denotes the midpoint of a concentration-inhibition curve. A word on the melting point: it is the temperature of the solid-liquid transition.

The text below walks through data of patent publication US6511965B2, “Ether type lipid A 1-carboxylic acid analogs” (Sankyo Company, Limited, priority 1999, dated 2003).

Where two headings read alike, the source gives them in different places.

For data set [1], the system named is TNF α production by U937 cells. Kind of data set: Test on macrophage activity inhibition (antagonist test): LPS antagonistic activity on TNFα production by U937 cells. The format is cell-based. The note with it: in the presence of 10 ng/ml of LPS, human monocytic U937 cells, 6 hours, TNFα by ELISA, concentration suppressing TNFα to 50% of standard production amount, read-out: IC50(nM), LPS antagonistic activities of the compounds on TNF α production by U937 cells. How it is done:
Test on macrophage activity inhibition (antagonist test).
TNFα is produced in vitro using human monocytic cell strain U937. The production amount of TNFα is determined by ELISA KIT of Genzyme Corporation.
Evaluation is carried out in accordance with the method of Daniel-Issakani, et al. (Journal of Biological Chemistry, 264, 20240-20247 (1989)).
By 10 ng/ml of LPS (lipopolysaccharide), about 1 ng of TNFα is produced per 10^5 cells of U937 during 6 hours (designated as a standard production amount: 100%).
In the presence of 10 ng/ml of LPS, the concentration of each of the compounds obtained in the Examples at which the production amount of TNFα is suppressed to 50% of the standard production amount is determined and it is expressed as ED50%.
A general note: ELISA stands for enzyme-linked immunosorbent assay.

For `CCCCCCCCCCCCCC(=O)O[C@H](CCCCCCCCCCC)CCO[C@H]1[C@H](OP(=O)(O)O)[C@@H](CO)OC(OC[C@H]2O[C@H](C(=O)O)[C@H](NC(=O)C[C@H](O)CCCCCCCCCCC)[C@@H](OCC[C@H](O)CCCCCCCCCCC)[C@@H]2O)[C@@H]1NC(C)=O` (stereo partly drawn) [Example 1, 2,6-Anhydro-7-O-[2-acetylamino-2-deoxy-4-O-phosphono-3-O-{(R)-3-tetradecanoyloxytetradecyl}-D-glucopyranosyl]-3-{(R)-3-hydroxytetradecanoylamino}-4-O-{(R)-3-hydroxytetradecyl}-3-deoxy-D-glycero-D-ido-heptonic Acid], the IC50 in data set [1] (U-937) came to 11 nM. Same read-out and setting: with `CCCCCCCCCCCCCC(=O)O[C@H](CCCCCCCCCCC)CCO[C@@H]1[C@@H](NC(C)=O)[C@H](OC[C@H]2O[C@H](C(=O)O)[C@H](NC(=O)C[C@H](O)CCCCCCCCCCC)[C@@H](OCC[C@H](O)CCCCCCCCCCC)[C@@H]2O)O[C@H](COC)[C@H]1OP(=O)(O)O` [Example 2, 2,6-Anhydro-7-O-[2-acetylamino-2-deoxy-6-O-methyl-4-O-phosphono-3-O-{(R)-3-tetradecanoyloxytetradecyl}-β-D-glucopyranosyl]-3-{(R)-3-hydroxytetradecanoylamino}-4-O-{(R)-3-hydroxytetradecyl}-3-deoxy-D-glycero-D-ido-heptonic Acid] the figure was 0.61 nM.

With `CCCCCCCCCCCCCC(=O)O[C@H](CCCCCCCCCCC)CCO[C@@H]1[C@@H](NC(C)=O)[C@H](OC[C@H]2O[C@H](C(=O)O)[C@H](NC(=O)C[C@H](O)CCCCCCCCCCC)[C@@H](OCC[C@H](O)CCCCCCCCCCC)[C@@H]2O)O[C@H](CF)[C@H]1OP(=O)(O)O` [Example 3, 2,6-Anhydro-7-O-[2-acetylamino-2,6-dideoxy-6-fluoro-4-O-phosphono-3-O-{(R)-3-tetradecanoyloxytetradecyl}-β-D-glucopyranosyl]-3-{(R)-3-hydroxytetradecanoylamino}-4-O-{(R)-3-hydroxytetradecyl}-3-deoxy-D-glycero-D-ido-heptonic Acid], in data set [1] (U-937), the IC50 was determined as 1.2 nM. `CCCCCCCCCCCCO[C@H](CCCCCCCCCCC)CCO[C@@H]1[C@@H](NC(C)=O)[C@H](OC[C@H]2O[C@H](C(=O)O)[C@H](NC(=O)C[C@H](O)CCCCCCCCCCC)[C@@H](OCC[C@H](O)CCCCCCCCCCC)[C@@H]2O)O[C@H](CO)[C@H]1OP(=O)(O)O` [Example 4, 2,6-Anhydro-7-O-[2-acetylamino-2-deoxy-3-O-{(R)-3-dodecyloxytetradecyl}-4-O-phosphono-β-D-glucopyranosyl]-3-{(R)-3-hydroxytetradecanoylamino}-4-O-{(R)-3-hydroxytetradecyl}-3-deoxy-D-glycero-D-ido-heptonic Acid] showed a melting point of 179 to 181 °C. In data set [1] (U-937), the IC50 turned out to be 11 nM. As to `CCCCCCCCCCCCO[C@H](CCCCCCCCCCC)CCO[C@@H]1[C@@H](NC(C)=O)[C@H](OC[C@H]2O[C@H](C(=O)O)[C@H](NC(=O)C[C@H](O)CCCCCCCCCCC)[C@@H](OCC[C@H](O)CCCCCCCCCCC)[C@@H]2O)O[C@H](COC)[C@H]1OP(=O)(O)O` [Example 5, 2,6-Anhydro-7-O-[2-acetylamino-2-deoxy-3-O-{(R)-3-dodecyloxytetradecyl}-6-O-methyl-4-O-phosphono-β-D-glucopyranosyl]-3-{(R)-hydroxytetradecanoylamino}-4-O-{(R)-3-hydroxytetradecyl}-3-deoxy-D-glycero-D-ido-heptonic Acid], the IC50 in data set [1] turned out to be 6.4 nM. Same read-out and setting: the same measure for `CCCCCCCCCCCCO[C@H](CCCCCCCCCCC)CCO[C@@H]1[C@@H](NC(C)=O)[C@H](OC[C@H]2O[C@H](C(=O)O)[C@H](NC(=O)C[C@H](O)CCCCCCCCCCC)[C@@H](OCC[C@H](O)CCCCCCCCCCC)[C@@H]2O)O[C@H](CF)[C@H]1OP(=O)(O)O` [Example 6]: 10 nM.
